Data reported in the NIST ThermoML archive (doi:10.1021/je800503d).
± gives the expanded uncertainty stated by the source.

conditions: 298.15 K; 101.33 kPa; Liquid; Vibrating tube method

mass density [kg/m3]	SMILES
1006.2 ± 0.24	COCCOCCOCCOCCOC [2,5,8,11,14-pentaoxapentadecane]
770.01 ± 0.24	CCCCCCCCCCCCCCCC [hexadecane]
785.04 ± 0.13	CCO [ethanol]
980.42 ± 0.23	COCCOCCOCCOC [2,5,8,11-tetraoxadodecane]
